The source of these data is ChEMBL document CHEMBL4813985, “Lead optimization generates selenium-containing miconazole CYP51 inhibitors with improved pharmacological profile for the treatment of fungal infections” (Eur J Med Chem, 2021).

Data set [1] relates to Candida albicans. Description: Anti-biofilm activity in Candida albicans CPCC400616 assessed as inhibition of biofilm formation at 32 ug/ml incubated for 24 hrs with 3 hrs precultured fungal suspension by XTT assay relative to control. The class given is functional. Background: Tetrazolium dyes change colour on reduction, which living cells bring about.
Data set [2] concerns the target T1, Lanosterol 14-alpha demethylase (Candida albicans (strain SC5314 / ATCC MYA-2876) (Yeast), UniProt P10613). Nature of the data set: Inhibition of CYP51 in Candida albicans ATCC SC5314 assessed as ergosterol level at 2 ug/ml after 16 hrs by GC-MS analysis (reference value: 98.3%). Details: scale not given: the % may be the effect or the level left. Particulars: candida albicans sc5314, 16 h, at 2 µg/mL.

Data set [3] in a line: Metabolic stability in mouse liver microsomes assessed as half life. The class given is ADME, Microsome. Background: Liver microsomes are a subcellular fraction often used to study metabolism.
Data set [4] has as its system Candida albicans. Description: Antifungal activity against Candida albicans ATCC SC5314 measured after 24 hrs by broth microdilution assay. It counts as functional.
The test system of another data set is Aspergillus fumigatus. Nature of the data set: Antifungal activity against Aspergillus fumigatus CMGCC3.7795 measured after 72 hrs by broth microdilution assay. It counts as functional. (In general: Dilution methods test growth across graded concentrations, often in twofold steps.)
A further data set has as its system Erythrocyte. Description: Hemolytic activity in rabbit RBC measured after 3 hrs by microplate reader assay. It counts as ADME, cell-based, Oryctolagus cuniculus.
Data set [5] addresses T1, Lanosterol 14-alpha demethylase. Description: Inhibition of CYP51 in Candida albicans ATCC SC5314 assessed as lanosterol level at 0.5 ug/ml after 16 hrs by GC-MS analysis (reference value: 1.7%). The arrangement: scale not given: the % may be the effect or the level left. To be noted: candida albicans sc5314, 16 h, at 0.5 µg/mL.
The target is the same in data set [6]. Description: Inhibition of CYP51 in Candida albicans ATCC SC5314 assessed as Obtusifoliol level at […] ug/ml after 16 hrs by GC-MS analysis (reference value: 0%). Details: scale not given: the % may be the effect or the level left. To be noted: candida albicans sc5314, 16 h, dose 0.125 µg/ml.
In data set [7] the test system is Candida albicans. Description: Fungicidal activity against Candida albicans CPCC400616 at 2 ug/ml incubated for 24 hrs and measured after 24 hrs culturing on PDA plate by time-kill kinetics analysis. The class given is functional, organism-based. To be noted: dose 2.0 µg/ml, time 48.0 hrs.
Data set [8] deals with T1, Lanosterol 14-alpha demethylase. Nature of the data set: Inhibition of CYP51 in Candida albicans ATCC SC5314 assessed as ergosterol level at 0.03125 ug/ml after 16 hrs by GC-MS analysis (reference value: 98.3%). The arrangement: scale not given: the % may be the effect or the level left. Particulars: candida albicans sc5314, 16 h, at 0.03125 µg/mL.
Data set [9] has as its system Candida albicans. Description: Ratio of MFC for Candida albicans CPCC400616 incubated for 48 hrs followed by culturing on PDA plate for 24 hrs to MIC for Candida albicans CPCC400616 measured after 24 hrs. It counts as functional.
In data set [10] the test system is Candida albicans. Description: Anti-biofilm activity in Candida albicans CPCC400616 assessed as inhibition of biofilm formation incubated for 24 hrs with 3 hrs precultured fungal suspension by XTT assay. The class given is functional.
Data set [11] can be described thus: Metabolic stability in mouse liver microsomes assessed as clearance. The class given is ADME, Microsome. Particulars: read-out: CLH.
In data set [12] the test system is Candida albicans. Nature of the data set: Fungicidal activity against Candida albicans CPCC400616 at 2 ug/ml incubated within 8 hrs and measured after 24 hrs culturing on PDA plate by time-kill kinetics analysis (reference value: 5 log10CFU/ml). It counts as functional. Particulars: dose 2 µg/ml; time 32 hrs.
In data set [13] the test system is Candida albicans. Nature of the data set: Antifungal activity against Candida albicans ATCC SC5314 infected in mouse model of candidiasis assessed as reduction in kidney fungal burden at 0.4 mg/kg/day, ip dosed at 2 hrs post infection and dosed for 4 days. The class given is functional, organism-based. To be noted: time 4.0 day.
The subject of data set [14] is Candida albicans. Nature of the data set: Antifungal activity against Candida albicans ATCC SC5314 infected in mouse model of candidiasis assessed as reduction in kidney fungal burden at 0.6 mg/kg/day, ip dosed at 2 hrs post infection and dosed for 4 days. To be noted: time 4.0 day. The class given is functional, organism-based.
Data set [15] concerns Candida albicans. Description: Antifungal activity against fluconazole-resistant Candida albicans 17# assessed as inhibition of microbial growth after 24 hrs by broth microdilution method. The class given is functional.
Data set [16] relates to Candida albicans. Nature of the data set: Antifungal activity against fluconazole-resistant Candida albicans 632 assessed as inhibition of microbial growth after 24 hrs by broth microdilution method. The class given is functional.
The test system of another data set is MCF-10A. Nature of the data set: Cytotoxicity against human MCF-10A cells assessed as reduction in cell viability incubated for 96 hrs by MTT assay. To be noted: read-out: IC50. It counts as cell-based.
Data set [17] is described as follows: Oral bioavailability in Sprague-Dawley rat at 5 mg/kg by LC-MS analysis. The class given is ADME, organism-based. To be noted: in vivo.
Data set [18] has as its system Candida albicans. Description: Fungicidal activity against Candida albicans CPCC400616 incubated for 24 hrs and measured after 24 hrs culturing on PDA plate by time-kill kinetics analysis. The class given is functional, organism-based. To be noted: dose 0.25-2 µg/ml, time 48.0 hrs.
The test system of data set [19] is Candida albicans. Description: Anti-biofilm activity in Candida albicans CPCC400616 assessed as inhibition of biofilm formation at 16 ug/ml incubated for 24 hrs with 3 hrs precultured fungal suspension by XTT assay relative to control. The class given is functional.
A short description of data set [20]: Selectivity ratio of IC50 for human PC-3 cells to MIC for Candida albicans CPCC400616. It counts as toxicity.
Data set [21] is described as follows: Half life in Sprague-Dawley rat at 2 mg/kg, iv by LC-MS analysis. It counts as ADME, organism-based. Particulars: in vivo.
Data set [22] has as its system Candida albicans. Nature of the data set: Potency index, ratio of fluconazole MIC to test compound MIC for Candida albicans CPCC400616 measured after 24 hrs by broth microdilution assay. It counts as functional.
Data set [23] can be described thus: Selectivity ratio of IC50 for human HL-60 cells to MIC for Candida albicans CPCC400616. The class given is toxicity.
Data set [24] relates to Candida albicans. Description: Antifungal activity against fluconazole-resistant Candida albicans CaR assessed as inhibition of microbial growth after 24 hrs by broth microdilution method. The class given is functional.
A short description of data set [25]: Selectivity ratio of IC50 for human MDA-MB-231 cells to MIC for Candida albicans CPCC400616. It counts as toxicity.
The nature of data set [26]: Half life in Sprague-Dawley rat at 5 mg/kg, po by LC-MS analysis. It counts as ADME, organism-based. Particulars: in vivo.
Data set [27] relates to Candida albicans. Description: Antifungal activity against fluconazole-resistant Candida albicans 904 assessed as inhibition of microbial growth after 24 hrs by broth microdilution method. It counts as functional.
Data set [28] in a line: Selectivity ratio of IC50 for human MCF-10A cells to MIC for Candida albicans CPCC400616. It counts as toxicity.
Data set [29] is described as follows: AUC (0 to t) in Sprague-Dawley rat at 2 mg/kg, iv by LC-MS analysis. It counts as ADME, organism-based. The arrangement: dose 2 mg/kg. To be noted: in vivo.
For data set [30], the system named is Candida albicans. Nature of the data set: Antifungal activity against fluconazole-resistant Candida albicans 901 assessed as inhibition of microbial growth after 24 hrs by broth microdilution method. The class given is functional.
The nature of data set [31]: AUC (0 to t) in Sprague-Dawley rat at 5 mg/kg, po by LC-MS analysis. The arrangement: dose 5 mg/kg. It counts as ADME, organism-based. Particulars: in vivo.

The structures appear in SMILES notation. Values after ≈ are worked out from the molar mass of the structure shown. Active and inactive are the calls of the source.

T1 sequence (P10613 whole entry): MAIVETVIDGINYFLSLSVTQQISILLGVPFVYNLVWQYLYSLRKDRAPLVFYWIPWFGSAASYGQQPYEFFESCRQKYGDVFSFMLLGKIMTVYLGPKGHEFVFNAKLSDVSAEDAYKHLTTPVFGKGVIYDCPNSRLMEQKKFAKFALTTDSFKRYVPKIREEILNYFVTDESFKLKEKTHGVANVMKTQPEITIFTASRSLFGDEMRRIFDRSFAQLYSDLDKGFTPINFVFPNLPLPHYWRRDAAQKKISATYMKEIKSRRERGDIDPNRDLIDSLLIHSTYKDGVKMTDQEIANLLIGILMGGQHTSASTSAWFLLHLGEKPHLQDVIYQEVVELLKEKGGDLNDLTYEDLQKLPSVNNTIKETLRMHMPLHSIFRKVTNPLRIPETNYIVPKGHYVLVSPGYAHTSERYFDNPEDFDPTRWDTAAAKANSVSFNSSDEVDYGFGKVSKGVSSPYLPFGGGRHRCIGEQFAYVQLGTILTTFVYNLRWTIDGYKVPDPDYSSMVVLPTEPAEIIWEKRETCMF

As usually defined, the inhibition is the change of the read-out against control, counted positive when it falls. Broadly, the half-life is the time needed for the level to fall by half in the phase considered. By MIC is commonly meant the least concentration at which growth counts as inhibited. In the case of `Clc1ccc(COC(Cn2ccnc2)c2ccc(Cl)cc2Cl)c(Cl)c1` (stereo not given) [MICONAZOLE], the inhibition at 32 µg/mL in the data set with Candida albicans [1] is 50%. In addition, the Activity in [2] worked out at 5.2%; in data set [5], 8.9%; in [6], 17.4%; in data set [8], 12.2%. For the same molecule, in [3], the half-life came out at 0.138 h. For the same molecule, the values for the MIC against Candida albicans [4] and with Aspergillus fumigatus were 0.03 mg/L (≈ 0.0721 µM) and 2 mg/L (≈ 4.81 µM), respectively. Moreover, in the data set on Erythrocyte, the MHC stood at 8 µg/mL. For the same molecule, the outcome in the data set with Candida albicans [7] was Active. For the same molecule, the Ratio in the data set on Candida albicans [9] is 8. Further, the MIC50 in the data set on Candida albicans [10] was determined as 32 mg/L (≈ 76.9 µM). Also, the MIC80 with Candida albicans [10] was determined as 128 mg/L (≈ 308 µM). Moreover, the CLint scaled in data set [11] came to 39.6 L/h/kg.

A word on the IC50: it is the point on the concentration scale where inhibition reaches its midpoint. The bioavailability is dose-corrected exposure relative to a reference, in per cent. By AUC(0-t) is commonly meant the area under the concentration-time curve up to a stated or last time point. For `Fc1ccc([Se]C(Cn2ccnc2)c2ccc(F)cc2F)cc1` (stereo not given), the Activity in [2] is 2.2%; in the data set on Candida albicans [12] it was 2 log10CFU/ml; with Candida albicans [18], “Dose-Dependent Effect”; in data set [5] it was 10.1%; in data set [6], 11.1%; in data set [8], 8.7%. In addition, the half-life is 0.323 h in data set [3], 1.89 h in [21] and 1.93 h in [26]. For the same molecule, the result in the data set on Candida albicans [13] and in the data set with Candida albicans [14] was Active. Moreover, the MIC was 0.06 mg/L in the data set on Candida albicans [15]; 0.5 mg/L in the data set on Candida albicans [16]; 0.02 mg/L (≈ 0.0525 µM) against Candida albicans [4]; 4 mg/L (≈ 10.5 µM) with Aspergillus fumigatus; 1 mg/L in the data set on Candida albicans [24]; 0.06 mg/L in the data set on Candida albicans [27]. The MIC in the data set with Candida albicans [30] came to 0.5 mg/L. Also, the IC50 with MCF-10A was 59.4 µM. Further, in [17], the bioavailability amounted to 22.3%. For the same molecule, the inhibition at 16 µg/mL in the data set with Candida albicans [19] is 80%. Further, the selectivity ratio in [20], in [23], in [25] and in data set [28] was 38 throughout. Further, the Ratio in the data set with Candida albicans [22] is reported as 8. Besides, the AUC(0-t) in [29] was determined as 2.25 µg·h/mL; in data set [31], 1.26 µg·h/mL. In the data set with Candida albicans [10], the MIC50 was 8 mg/L (≈ 21 µM). Further, in the data set on Candida albicans [10], the MIC80 was 16 mg/L (≈ 42 µM). Moreover, the CLint scaled in [11] is 16.9 L/h/kg.
